Measured values as given in US7566697B2, “Carboxy protection strategies for acidic C-terminal amino acids in chemical ligation of oligopeptides” (Amylin Pharmaceuticals, Inc., priority 2002, dated 2009).
Residues, ends and D or L forms follow the SMILES beside them. Primed or numbered codes have the meaning given here. No end group written: not given here. *: point of attachment. diMeOPac = (2',4'-dimethoxy)phenacyl ester on the Asp side chain, COc1ccc(C(=O)C*)c(OC)c1; Fmoc = O=C(OCC1c2ccccc2-c2ccccc21)*; X1 = CC(O*)C(=O)c1ccccc1; OPac′ = phenacyl ester; X2 = ClC(Cl)(Cl)CO*

What was measured:
[1] = buffer, pH 6.5
Description: The C-terminal unprotected peptide (1.5 equivalent) and the N-terminal peptide (1 equivalent) were solubilized in freshly degassed 6M guanidinium hydrochloride, 0.2 M sodium phosphate, pH 7.5 buffer at a concentration of 2.5 mM each. After addition of 1% thiophenol and 1% benzyl mercaptan the pH was adjusted to 6.5 (or different thiols concentration or pH as reported in the text). Aliquots of this solution were treated with equal volumes of BME for 5 minutes and then with 10% TCEP for 10 minutes to completely hydrolyse any thiol adduct before HPLC analysis. Ligation reaction analysis was conducted using a gradient starting from 10% of B with a gradient slope of 1.66% of B per minute. Base line resolution of the different isomerization product was achieved using a gradient starting at 20% of B and with an increase of 0.33% B.

SV8 protease = SV8 protease (Staphylococcus aureus, UniProt P0C1U8); settings: 1 unit/20 μg, 24 hours at 37° C.
Description: Peptides were digested using the enzyme SV8 protease. The peptides, solubilized to a final 5 mM concentration in 0.1 M NH4HCO3 and 0.3% BME, were digested by adding the enzyme solution (250 unit/ml), keeping the enzyme/peptide ratio of 1 unit/20 μg. The reaction was stopped after 24 hours at 37° C. by treatment with equal volumes of 10% TCEP, and extent of digestion assayed by RP-HPLC. Digested fragments were characterized by ESI-MS.

| half-life in the ligation condition [1] | Molecule | Hydrolysis t1/2 [1] [h] | digestion by SV8 protease (SV8 protease) |
| --- | --- | --- | --- |
| 500 h | CC(=O)N[C@@H](CC(=O)OC(C)C(=O)c1ccccc1)C(=O)N[C@@H](Cc1ccc(O)cc1)C(=O)N[C@@H](C)C(=O)N[C@@H](CCCCN)C(=O)N[C@@H](Cc1ccc(O)cc1)C(=O)N[C@@H](C)C(=O)N[C@@H](CCCCN)C(=O)N[C@@H](CC(C)C)C(=O)O (some centres unmarked) [OMop, Ac-D(OMop)YAKYAKL] (Ac-D(X1)YAKYAKL-OH) | 9.9 | – |
| less than 2 hours | CC(C)C[C@H](NC(=O)[C@H](CCCCN)NC(=O)[C@H](C)NC(=O)[C@H](Cc1ccc(O)cc1)NC(=O)[C@H](CCCCN)NC(=O)[C@H](C)NC(=O)[C@H](Cc1ccc(O)cc1)NC(=O)[C@H](CC(=O)OCC(Cl)(Cl)Cl)NC(=O)OCC1c2ccccc2-c2ccccc21)C(=O)O [Troc, Fmoc-D(Troc)YAKYAKL] (Fmoc-D(X2)YAKYAKL-OH) | 1.5 | – |
| – | Ac-D(OPac)YAKYAKL (Ac-D(OPac′)YAKYAKL) | 1.2 | – |
| – | Ac-D(diMeOPac)YAKYAKL [OdiMeOPac] | 3.8 | – |
| – | LYRAD(β)CSYUFL [product 6] | – | unaffected by the enzyme |
| – | LYRAE(γ)CSYRFL [product 7] | – | unaffected by the enzyme |
